Experimental data taken from patent US10933141B2, “Formulations with reduced degradation of polysorbate” (Genentech, Inc., priority 2015, dated 2021).

What was measured:
Format in all cases: biochemical
CALB, RLE, and LPL = assay: PS20 loss and subvisible particles after digestion, summary across CALB, LPL and RLE; settings: 15% (w/v) HP-β-CD vs 0%; ≥2, ≥5, ≥10, ≥25 micron; HIAC
Protocol: (§1) Subvisible particles were measured using a HIAC 9703 particle counter equipped with an HRDL-150 detector and a 1 mL syringe. Performance of the instrument was verified with NIST-traceable 2 μm Polystyrene bead standards at 3000 counts/mL before each measurement session. The HIAC instrument was configured to a 10 mL/min flow rate, 0.1 mL tare volume, and 0.4 mL sample volume. The samples were analyzed using 4 runs of 0.4 mL sips, with the first run of each sample was discarded to prevent measurement error due to sample carryover. Results were reported as the average values for 1.4, 2, 5, 10, 15, and 25, 50 μm analysis filter sizes.
(§2) Polysorbate concentration was determined using reverse phase ultra-performance liquid chromatography using evaporative light scattering detection (RP-ELSD). Samples were analyzed using an Agilent 1100 series high performance liquid chromatography system (HPLC) fitted with a Waters Oasis MAX cartridge column (20×2.1 mm, 30 μm particle size). […] In order to quantitate the PS20 concentration, a standard curve was generated by injecting 20 μL of solutions containing between 0% w/v and 0.4% w/v PS20. For excipients which affected the migration time of PS20 through the column, PS20 standard curve solutions containing the relevant excipient were included in the analysis to facilitate accurate quantitation. […]

[1] = molecular target: T1, porcine pancreatic lipase (PPL) (Sus scrofa, UniProt P00591); assay: Enzymatic degradation of PS80 by PPL (RP-ELSD, HIAC)
T1 construct: purchased Sigma Aldrich Inc. (St. Louis, Mo.)
T1 sequence (P00591 1-450): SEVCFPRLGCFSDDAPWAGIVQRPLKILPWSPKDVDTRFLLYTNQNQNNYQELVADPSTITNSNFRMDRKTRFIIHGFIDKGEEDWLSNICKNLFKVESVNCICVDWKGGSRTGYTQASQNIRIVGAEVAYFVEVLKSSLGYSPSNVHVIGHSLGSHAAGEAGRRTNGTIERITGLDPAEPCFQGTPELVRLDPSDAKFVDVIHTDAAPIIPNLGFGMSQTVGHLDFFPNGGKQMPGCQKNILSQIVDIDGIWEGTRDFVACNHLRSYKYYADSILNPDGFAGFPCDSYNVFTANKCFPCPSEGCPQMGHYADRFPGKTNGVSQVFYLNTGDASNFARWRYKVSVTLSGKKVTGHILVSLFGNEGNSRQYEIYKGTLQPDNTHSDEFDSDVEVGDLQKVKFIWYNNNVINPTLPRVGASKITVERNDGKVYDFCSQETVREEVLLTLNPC
Protocol: as §1, §2

[2] = molecular target: T1, porcine pancreatic lipase (PPL); assay: Kinetics of enzymatic PS20 degradation by PPL; settings: 15% sucrose; 0.02% (w/v) PS20; 15 μg/mL PPL, about 25° C., 180 hours
Protocol: as §2, with “size). The HPLC system was set up with a switching valve directing column flow-through to either waste or a Varian 380-LC evaporative light scattering detector set to 100° C. The mobile phases consisted of 2% formic acid in water (Pump A) and 2% formic acid in isopropanol (Pump B). The pump gradient was isocratic at 10% pump B during equilibration, linear to 20% pump B for 1 minute, isocratic at 20% pump B for 2.4 minutes, linear to 100% pump B for 0.1 minutes, isocratic at 100% pump B for 1.1 minutes, linear to 10% pump B for 0.1 minutes, and finally isocratic at 10% pump B for 1.9 minutes.” for “size).”

2-hydroxypropyl-β-cyclodextrin [HP-β-CD]
subvisible particulates (SVP/mL) after enzymatic degradation (CALB, RLE, and LPL): fewer SVP/mL | subvisible particulates (SVP/mL) after PPL degradation of PS80 ([1]; 15% (w/v) HP-β-CD vs 0%, ≥1.4 to ≥25 micron, HIAC): fewer SVP/mL | decrease in PS80 ([1]; 15% (w/v) HP-β-CD, 0.02% (w/v) PS80, pH 5.5, 15 μg/mL PPL, 5 hours, room temperature): approximately 4%

OC[C@H]1O[C@@](CO)(O[C@H]2O[C@H](CO)[C@@H](O)[C@H](O)[C@H]2O)[C@@H](O)[C@@H]1O [sucrose, reference compound]
plateau of PS20 degradation curve [2]: 44%
